In brackets after ≈: the same amount, converted by molar mass.
Assays:
[1] = target: T1, Palmitoleoyl-protein carboxylesterase NOTUM (Homo sapiens, UniProt Q6P988, C330S); test: Inhibition of human Notum (S81 to T451 residues) Cys330Ser mutant expressed in HEK293S GnTI cells using OPTS as substrate incubated for 40 mins by fluorescence based assay
[2] = target: T1, Palmitoleoyl-protein carboxylesterase NOTUM; test: Inhibition of human Notum (S81 to T451 residues) Cys330Ser mutant expressed in HEK293S GnTI cells at 100 uM using OPTS as substrate incubated for 40 mins by fluorescence based assay relative to control
[3] = Apparent permeability from basolateral to apical side in MDCK2-MDR1 cells at 10 uM measured up to 120 mins by LC-MS/MS analysis; type: ADME, cell-based, Canis lupus familiaris; settings: dog, MDCK-MDR1
[4] = Apparent permeability from apical to basolateral side in MDCK2-MDR1 cells at 10 uM measured up to 120 mins by LC-MS/MS analysis; type: ADME, cell-based, Canis lupus familiaris; settings: dog, MDCK-MDR1
[5] = Efflux ratio of apparent permeability in MDCK2-MDR1 cells at 10 uM measured up to 120 mins by LC-MS/MS analysis; type: ADME, cell-based, Canis lupus familiaris; settings: dog, MDCK-MDR1
[6] = Intrinsic clearance in mouse liver microsomes at 1 uM measured up to 60 mins in presence of NADPH by LC-MS/MS analysis; type: ADME, Microsome; settings: read-out: CLH
[7] = Chromatographic hydrophobicity index, log D of the compound at pH 7.4; type: physicochemical; settings: buffer
[8] = Aqueous solubility at pH 7.4; type: physicochemical; settings: buffer

T1 sequence (Q6P988 20-496 C330S limits assumed): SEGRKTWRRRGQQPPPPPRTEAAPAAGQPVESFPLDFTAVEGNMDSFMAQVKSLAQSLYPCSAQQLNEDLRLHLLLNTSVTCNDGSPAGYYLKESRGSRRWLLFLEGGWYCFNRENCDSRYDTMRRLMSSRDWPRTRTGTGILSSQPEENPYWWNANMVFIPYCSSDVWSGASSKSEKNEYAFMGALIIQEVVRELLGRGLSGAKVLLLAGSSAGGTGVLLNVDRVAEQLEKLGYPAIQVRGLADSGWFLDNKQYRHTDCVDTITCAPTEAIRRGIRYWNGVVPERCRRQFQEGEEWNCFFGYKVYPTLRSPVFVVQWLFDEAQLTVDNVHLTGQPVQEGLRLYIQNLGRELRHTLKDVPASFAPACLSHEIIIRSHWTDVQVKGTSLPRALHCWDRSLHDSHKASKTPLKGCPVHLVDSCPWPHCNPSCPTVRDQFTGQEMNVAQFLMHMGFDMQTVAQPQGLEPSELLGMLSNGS

SMILES	IC50 [1] [µM]	further results
CN(C)C(=O)C1CCN(c2ccc(Cl)c(C(F)(F)F)c2)C1 (configuration not stated)	1.2	–
Cc1cc(C(=O)O)c(C)n1-c1ccc(Cl)c(C(F)(F)F)c1	2.1	–
Cc1cc(C(=O)O)c(C)n1-c1ccccc1F	3.3	–
O=C(Nc1ccccc1)C1CCN(c2ccc(Cl)c(C(F)(F)F)c2)C1 (configuration not stated)	1	–
Cc1cc(C(=O)O)c(C)n1-c1c(Cl)cccc1Cl	2.3	–
Cc1cc(C(=O)O)c(C)n1-c1ccccc1Cl	2.3	–
COc1c(Cl)cccc1-n1c(C)cc(C(=O)O)c1C	0.8	–
Cc1cc(C(=O)O)c(C)n1-c1cccc(C(C)C)c1	0.36	–
O=C(O)c1c[nH]c(C(F)(F)F)c1	> 100	inhibition at 100 µM [2]: < 20%
Cc1cc(C(=O)O)c(C)n1-c1cc(Cl)ccc1Cl	1.7	–
O=C(O)C1CCN(c2ccc(C(F)(F)F)cc2)C1 (racemic)	50	–
O=C(C1CCN(c2ccc(Cl)c(C(F)(F)F)c2)C1)N1CCCC1 (configuration not stated)	0.41	–
Cc1cc(C(=O)O)c(C)n1-c1cccc(C(C)C)c1F	0.15	Papp B→A at 2 h, 10 µM [3]: 43 ×10⁻⁶ cm/s; Papp A→B at 2 h, 10 µM [4]: 46 ×10⁻⁶ cm/s; efflux ratio at 2 h, 10 µM [5]: 0.93; microsomal CLint at 1 µM [6]: 52 µL/min/mg; chromatographic logD [7]: 3.1; solubility [8]: 51 µM (≈ 14 µg/mL)
Cc1cc(C(=O)O)c(C)n1CC1CC1	12.7	–
Cc1cc(C(=O)O)c(C)n1-c1cccc(C#N)c1F	0.63	–
O=C(O)C1CCN(c2ccc(F)c(C(F)(F)F)c2)C1 (racemic)	2.5	–
Cc1[nH]ccc1C(=O)O	> 100	inhibition at 100 µM [2]: < 20%
Cc1cc(C(=O)O)c(C)n1C1CC1	6.3	–
Cc1cc(C(=O)O)c(C)n1-c1ccc(F)cc1	1.9	–
Cc1cc(C(=O)O)c(C)n1-c1cccc(Cl)c1C#N	2	–
Cc1c(C(=O)O)cc(C(F)(F)F)n1-c1ccccc1	22	–

SMILES	IC50 [1] [µM]	further results
Cc1cc(C(=O)O)c[nH]1	100	inhibition at 100 µM [2]: 50%
O=C(C1CCN(c2ccc(Cl)c(C(F)(F)F)c2)C1)N1CC(F)(F)C1 (configuration not stated)	0.26	Papp B→A at 2 h, 10 µM [3]: 10 ×10⁻⁶ cm/s; Papp A→B at 2 h, 10 µM [4]: 8 ×10⁻⁶ cm/s; efflux ratio at 2 h, 10 µM [5]: 1.2; microsomal CLint at 1 µM [6]: 21 µL/min/mg; chromatographic logD [7]: 4; solubility [8]: 19 µM (≈ 7.01 µg/mL)
O=C(O)c1cc[nH]c1	> 100	inhibition at 100 µM [2]: < 20%
Cc1c[nH]cc1C(=O)O	100	inhibition at 100 µM [2]: 50%
O=C(O)C1CCN(c2cc(Cl)cc(Cl)c2)C1 (racemic)	11	–
Cc1cc(C(=O)O)c(C)n1-c1ccc(Cl)c(Cl)c1	0.27	–
O=C(O)C1CCN(c2ccc(Cl)c(Cl)c2)C1 (racemic)	1.2	–
Cc1c(C(=O)O)cc(C(F)(F)F)n1Cc1ccccc1	> 100	inhibition at 100 µM [2]: 20 to 40%
O=C(O)C1CCN(c2ccc(Cl)cc2)C1 (racemic)	19	–
Cc1cc(C(=O)O)c(C)n1-c1ccc(Cl)cc1	0.86	–
FC(F)(F)c1cc(N2CCC(c3nnco3)C2)ccc1Cl (configuration not stated)	24	–
Cc1c[nH]c(C)c1C(=O)O	100	inhibition at 100 µM [2]: 50%
O=C(O)C1CCN(c2ccc(F)cc2)C1 (racemic)	15	–
O=C(O)C1CCN(c2cc(Cl)ccc2Cl)C1 (racemic)	7.9	–
O=C(O)C1CCN(c2ccc(Cl)cc2Cl)C1 (racemic)	10	–
Cc1cc(C(=O)O)c(C)n1-c1ccccc1	1.7	–
CN1CCN(C(=O)C2CCN(c3ccc(Cl)c(C(F)(F)F)c3)C2)CC1=O (configuration not stated)	3.1	–
Cc1cccc(-n2c(C)cc(C(=O)O)c2C)c1	1.5	–
Cc1cc(C(=O)O)c(C)n1-c1ccc(C(F)(F)F)c(Cl)c1	1.5	–
O=C(C1CCN(c2ccc(Cl)c(C(F)(F)F)c2)C1)N1CC2COCC2C1 (configuration not stated)	3.1	–
COCCNC(=O)C1CCN(c2ccc(Cl)c(C(F)(F)F)c2)C1 (configuration not stated)	3.5	–

SMILES	IC50 [1] [µM]	further results
O=C(O)C1CCN(c2cccc(C(F)(F)F)c2)C1 (racemic)	11	–
Cc1cc(C(=O)O)c(C)n1-c1cc(Cl)cc(Cl)c1	0.85	–
Cc1cc(C(=O)O)c(C)n1-c1cccc(C#N)c1	3.1	–
Cc1cc(C(=O)O)c(C)n1-c1cccc(Cl)c1	0.43	–
O=C(O)C1CCN(c2cccc(Cl)c2)C1 (racemic)	14	–
Cc1[nH]c(C(F)(F)F)cc1C(=O)O	6.7	–
O=C(O)C1CCN(c2ccccc2F)C1 (configuration not stated)	11 to 11.3	–
O=C(O)C1CCN(c2ccccc2Cl)C1 (configuration not stated)	19	–
N#Cc1cccc(N2CCC(C(=O)O)C2)c1 (racemic)	42	–
CC(C)c1cccc(N2CCC(C(=O)O)C2)c1 (racemic)	57	–
Cc1cc(C(=O)O)c(C)n1-c1cccc(F)c1	1.5	–
Cc1cc(C(=O)O)c(C)n1C	> 100	inhibition at 100 µM [2]: 20 to 40%
O=C(C1CCN(c2ccc(Cl)c(C(F)(F)F)c2)C1)N1CCOCC1 (configuration not stated)	9.7	–
CN1CN(C(=O)C2CCN(c3ccc(Cl)c(C(F)(F)F)c3)C2)CC1=O (configuration not stated)	1.4	–
Cc1cc(C(=O)O)c(C)n1-c1ccc(Cl)cc1Cl	0.43	–
O=C(O)C1CCN(c2c(Cl)cccc2Cl)C1 (racemic)	26	–
CCOc1cccc(-n2c(C)cc(C(=O)O)c2C)c1	0.64	–
Cc1cc(C(=O)O)c(C)n1-c1cccc(Cl)c1Cl	0.22	–
Cc1cc(C(=O)O)c(C)n1-c1cccc(C2CC2)c1	0.58	–
O=C(O)C1CCN(c2cccc(OC(F)(F)F)c2)C1 (racemic)	63	–
Cc1ccccc1-n1c(C)cc(C(=O)O)c1C	2.2	–

SMILES	IC50 [1] [µM]	further results
Cc1cc(C(=O)O)c(C)n1-c1cccc(C2CC2)c1F	0.2	–
Cc1c(C(=O)O)ccn1-c1ccccc1	3.8	–
CNC(=O)C1CCN(c2ccc(Cl)c(C(F)(F)F)c2)C1 (configuration not stated)	1.3	–
O=c1[nH]nc(C2CCN(c3ccc(Cl)c(C(F)(F)F)c3)C2)o1 (configuration not stated)	4.2	Papp B→A at 2 h, 10 µM [3]: 19 ×10⁻⁶ cm/s; Papp A→B at 2 h, 10 µM [4]: 13 ×10⁻⁶ cm/s; efflux ratio at 2 h, 10 µM [5]: 1.5; microsomal CLint at 1 µM [6]: 10 µL/min/mg; chromatographic logD [7]: 3.5; solubility [8]: 69 µM (≈ 23 µg/mL)
O=C(O)[C@H]1CCN(c2ccc(Cl)c(C(F)(F)F)c2)C1	–	Papp B→A at 2 h, 10 µM [3]: 43 ×10⁻⁶ cm/s; Papp A→B at 2 h, 10 µM [4]: 39 ×10⁻⁶ cm/s; microsomal CLint at 1 µM [6]: 2.5 µL/min/mg; chromatographic logD [7]: 1.5; solubility [8]: > 595 µM
Cc1cc(C(=O)O)c(C)n1Cc1ccccc1	14	–
Cc1cc(C(=O)O)c(C)[nH]1	> 100	inhibition at 100 µM [2]: < 20%
Cc1ccc(-n2c(C)cc(C(=O)O)c2C)cc1	2	–
O=C(O)C1CCN(c2cccc(C(F)(F)F)c2F)C1 (configuration not stated)	6.8	–
Cc1cc(C(=O)O)c(C)n1-c1cccc(C(C)(C)C)c1	0.46	–
COc1cccc(-n2c(C)cc(C(=O)O)c2C)c1	1.5	–
O=C(O)C1CCN(c2ccc(C(F)(F)F)c(Cl)c2)C1 (racemic)	8.5	–
Cc1cc(C(=O)O)c(C)n1-c1cccc(C(F)(F)F)c1	1.5	–
Cc1cccc(N2CCC(C(=O)O)C2)c1 (racemic)	49	–
O=C(O)C1CCN(c2ccc(Cl)c(Cl)c2Cl)C1 (racemic)	0.6	–
Cc1c(C(=O)O)ccn1Cc1ccccc1	3.1	–
O=C(O)C1CCN(c2cccc(Cl)c2Cl)C1 (racemic)	8	–
Cc1cc(C(=O)O)c(C)n1-c1cccc(Cl)c1F	0.38	–

From ChEMBL document CHEMBL4619806, “Screening of a Custom-Designed Acid Fragment Library Identifies 1-Phenylpyrroles and 1-Phenylpyrrolidines as Inhibitors of Notum Carboxylesterase Activity” (J Med Chem, 2020)
